From US9708325B2, “Sulfonimidoylpurinone compounds and derivatives for the treatment and prophylaxis of virus infection” (Hoffmann-La Roche Inc., priority 2015, dated 2017) come the findings set out here.

A word on the EC50: it is the concentration needed to bring the measured effect to its halfway point. Usually thermodynamic solubility stands for the concentration in solution at equilibrium with solid.

Values after ≈ are worked out from the molar mass of the structure shown. Like-named read-outs stand apart in the source and are kept apart here. Marks after values point to notes of the source that are not given here. Bounds are passed on as bounds.

For series [1], the target named is human TLR7 (Homo sapiens (Human), UniProt Q9NYK1). As to the kind of experiment: HEK-Blue-hTLR7 cells assay (SEAP reporter). It is filed as cell-based. The note with it: 20 hrs. The procedure:
A stable HEK-Blue-hTLR7 cell line was purchased from InvivoGen (Cat.#: hkb-htlr7, San Diego, Calif., USA). These cells were designed for studying the stimulation of human TLR7 by monitoring the activation of NF-κB. […] Therefore the reporter expression was regulated by the NF-κB promoter upon stimulation of human TLR7 for 20 hrs. The cell culture supernatant SEAP reporter activity was determined using QUANTI-Blue™ kit (Cat.#: rep-qb1, Invivogen, San Diego, Ca, USA) at a wavelength of 640 nm, a detection medium that turns purple or blue in the presence of alkaline phosphatase.
(§1) HEK-Blue-hTLR7 cells were incubated at a density of 250,000˜450,000 cells/mL in a volume of 180 μL in a 96-well plate in Dulbecco's Modified Eagle's medium (DMEM) containing 4.5 g/L glucose, 50 U/mL penicillin, […], […], 2 mM L-glutamine, 10% (V/V) heat-inactivated fetal bovine serum for 24 hrs. Then the HEK-Blue-hTLR-7 cells were incubated with addition of 20 μL test compound in a serial dilution in the presence of final DMSO at 1% and perform incubation under 37° C. in a CO2 incubator for 20 hrs. Then 20 μL of the supernatant from each well was incubated with 180 μL Quanti-blue substrate solution at 37° C. for 2 hrs and the absorbance was read at 620˜655 nm using a spectrophotometer. The signalling pathway that TLR7 activation leads to downstream NF-κB activation has been widely accepted, and therefore similar reporter assay was also widely used for evaluating TLR7 agonist (Tsuneyasu Kaisho and Takashi Tanaka, Trends in Immunology, Volume 29, Issue 7, July 2008, […]; Hiroaki Hemmi et al, Nature Immunology 3, 196-200 (2002)).

Series [2] can be described thus: LYSA solubility. It is filed as physicochemical. The note with it: for solubility thermodynamic: 0.05 M phosphate buffer, pH 6.5, aqueous buffer, thermodynamic from solid; for LYSA: 0.05 M phosphate buffer (pH 6.5). The procedure:
LYSA solubility assay is used to determine the aqueous solubility of a compound. Samples were prepared in duplicate from 10 mM DMSO stock solution. […] After one night, the solutions were filtered using a microtiter filter plate. Then the filtrate and its 1/10 dilution were analyzed by HPLC-UV.

The nature of series [3]: Metabolic stability in human liver microsomes. The settings on record: 1 μM test compound, 0.5 mg/mL microsomal protein; 6.15 mL/min/kg is the limitation of assay sensitivity. The protocol:
The human microsomal stability assay is used for early assessment of metabolic stability of a test compound in human liver microsomes.
Human liver microsomes (Cat. NO.: 452117, Corning, USA; Cat. NO.: H2610, Xenotech, USA) were preincubated with test compound for 10 minutes at 37° C. in 100 mM potassium phosphate buffer, pH 7.4. The reactions were initiated by adding NADPH regenerating system. The final incubation mixtures contained 1 μM test compound, 0.5 mg/mL liver microsomal protein, 1 mM MgCL2, 1 mM NADP, 1 unit/mL isocitric dehydrogenase and 6 mM isocitric acid in 100 mM potassium phosphate buffer, pH 7.4. After incubation times of 0, 3, 6, 9, 15 and 30 minutes at 37° C., 300 μL of cold ACN (including internal standard) was added to 100 μL incubation mixture to terminate the reaction. Following precipitation and centrifugation, the amount of compound remaining in the samples were determined by LC-MS/MS. Controls of no NADPH regenerating system at zero and 30 minutes were also prepared and analyzed.
On the technique in general: Liver microsomes are a subcellular fraction often used to study metabolism.

Series [4] concerns the target human TLR8 (Homo sapiens (Human), UniProt Q9NR97). Put plainly: HEK-Blue-hTLR8 cells assay and selectivity index. It is filed as cell-based. The settings on record: for Selective index: EC50(TLR8) value/EC50(TLR7) value. The protocol:
A stable HEK-Blue-hTLR8 cell line was purchased from InvivoGen (Cat.#: HEK-Blue-htlr8, San Diego, Calif., USA). These cells were designed for studying the stimulation of human TLR8 by monitoring the activation of NF-κB. […] Therefore the reporter expression was regulated by the NF-κB promoter upon stimulation of human TLR8 for 20 hrs. The cell culture supernatant SEAP reporter activity was determined using QUANTI-Blue™ kit (Cat.#: rep-qb1, Invivogen, San Diego, Ca, USA) at a wavelength of 640 nm, a detection medium that turns purple or blue in the presence of alkaline phosphatase.
as §1, with “HEK-Blue-hTLR8 cells” for “HEK-Blue-hTLR7 cells”, “the HEK-Blue-hTLR8” for “the HEK-Blue-hTLR-7”, “2 hours” for “2 hrs”, “that TLR8” for “that TLR7”, “evaluating TLR8” for “evaluating TLR7”
The ratio of TLR8 agonism activity compared to TLR7 agonism activity was defined as the selectivity index (EC50 (TLR8) value/EC50(TLR7) value) and calculated accordingly.

Where [5] appears, read: read-out: HEK-Blue-hTLR7 (EC50 (μM)).

human TLR8, sequence (Q9NR97 27-1041): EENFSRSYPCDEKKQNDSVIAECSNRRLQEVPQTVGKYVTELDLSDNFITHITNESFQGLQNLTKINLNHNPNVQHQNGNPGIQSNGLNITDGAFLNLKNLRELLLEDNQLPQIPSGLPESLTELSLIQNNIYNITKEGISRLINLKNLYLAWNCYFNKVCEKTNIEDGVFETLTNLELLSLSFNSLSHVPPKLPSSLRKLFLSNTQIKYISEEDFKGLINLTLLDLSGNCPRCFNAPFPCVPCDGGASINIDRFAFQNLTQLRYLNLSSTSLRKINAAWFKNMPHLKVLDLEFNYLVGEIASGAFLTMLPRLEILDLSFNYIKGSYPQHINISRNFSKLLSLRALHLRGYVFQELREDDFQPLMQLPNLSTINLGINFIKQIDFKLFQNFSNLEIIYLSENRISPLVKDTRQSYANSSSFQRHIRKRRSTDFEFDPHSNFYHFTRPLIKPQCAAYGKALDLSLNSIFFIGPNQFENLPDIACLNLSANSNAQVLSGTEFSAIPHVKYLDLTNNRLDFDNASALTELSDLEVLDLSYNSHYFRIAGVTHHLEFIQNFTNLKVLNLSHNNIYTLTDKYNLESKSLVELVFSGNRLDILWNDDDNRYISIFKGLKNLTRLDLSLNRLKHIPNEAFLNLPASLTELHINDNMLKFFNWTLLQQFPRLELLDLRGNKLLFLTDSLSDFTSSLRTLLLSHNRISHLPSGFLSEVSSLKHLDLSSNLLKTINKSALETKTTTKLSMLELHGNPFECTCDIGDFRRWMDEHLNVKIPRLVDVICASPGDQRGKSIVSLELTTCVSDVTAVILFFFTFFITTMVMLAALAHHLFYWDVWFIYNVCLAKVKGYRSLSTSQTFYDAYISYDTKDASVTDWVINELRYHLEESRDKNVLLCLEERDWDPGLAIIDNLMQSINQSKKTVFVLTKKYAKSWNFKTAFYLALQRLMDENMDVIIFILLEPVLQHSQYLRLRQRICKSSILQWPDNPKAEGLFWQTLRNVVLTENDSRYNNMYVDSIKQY
human TLR7, sequence (Q9NYK1 27-1049): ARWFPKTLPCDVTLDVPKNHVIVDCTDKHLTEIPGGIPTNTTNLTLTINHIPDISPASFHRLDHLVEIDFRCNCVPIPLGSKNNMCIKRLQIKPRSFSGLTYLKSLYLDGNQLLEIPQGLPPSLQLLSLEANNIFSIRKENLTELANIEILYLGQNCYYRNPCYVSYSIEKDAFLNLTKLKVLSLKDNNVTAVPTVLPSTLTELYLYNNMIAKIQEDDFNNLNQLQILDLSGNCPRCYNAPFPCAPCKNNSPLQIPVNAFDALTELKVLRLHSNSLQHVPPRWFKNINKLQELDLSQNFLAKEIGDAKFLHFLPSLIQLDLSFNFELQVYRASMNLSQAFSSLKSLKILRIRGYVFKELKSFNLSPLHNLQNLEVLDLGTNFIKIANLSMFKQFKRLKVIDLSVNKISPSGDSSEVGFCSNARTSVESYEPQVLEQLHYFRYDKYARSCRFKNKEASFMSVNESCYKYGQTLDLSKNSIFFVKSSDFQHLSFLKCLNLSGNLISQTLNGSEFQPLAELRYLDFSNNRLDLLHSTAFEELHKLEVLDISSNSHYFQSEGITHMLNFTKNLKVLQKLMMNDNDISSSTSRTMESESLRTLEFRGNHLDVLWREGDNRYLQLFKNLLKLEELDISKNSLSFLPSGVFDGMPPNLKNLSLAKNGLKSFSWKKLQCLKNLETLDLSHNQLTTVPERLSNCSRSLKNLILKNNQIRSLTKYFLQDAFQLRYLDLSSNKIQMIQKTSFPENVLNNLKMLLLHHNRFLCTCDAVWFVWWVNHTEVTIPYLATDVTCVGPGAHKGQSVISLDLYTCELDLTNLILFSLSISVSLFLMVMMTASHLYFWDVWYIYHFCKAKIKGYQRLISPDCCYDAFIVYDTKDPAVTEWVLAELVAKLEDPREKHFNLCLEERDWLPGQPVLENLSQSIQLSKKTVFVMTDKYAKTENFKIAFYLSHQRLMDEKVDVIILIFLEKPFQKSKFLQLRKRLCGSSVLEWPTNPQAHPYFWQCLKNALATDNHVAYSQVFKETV

Consider `CCS(=N)(=O)c1nc(N)c2[nH]c(=O)n(Cc3ccccc3)c2n1` (centres unmarked) [Example 2, 6-Amino-9-benzyl-2-(ethylsulfonimidoyl)-7H-purin-8-one], for which the EC50 in series [1] (setting [5]) was determined as 0.2 µM. Besides, the thermodynamic solubility in series [2] came to 29 µg/mL (≈ 87.2 µM). Also, the “Human Liver Microsome Clearance” value in series [3] was under 6.15 mL/min/kg.
On to `CCCS(=N)(=O)c1nc(N)c2[nH]c(=O)n(Cc3ccc(C(N)=O)cc3)c2n1` (centres unmarked) [Example 33, 4-[[6-amino-8-oxo-2-(propylsulfonimidoyl)-7H-purin-9-yl]methyl]benzamide], for which, in series [1] (setting [5]), the EC50 stood at 0.066 µM. This molecule also registered a thermodynamic solubility in series [2] of 79 µg/mL (≈ 203 µM). In addition, the “Human Liver Microsome Clearance” value in series [3] is under 6.15 mL/min/kg.
`CCS(=N)(=O)c1nc(N)c2[nH]c(=O)n(Cc3ccc(F)cc3)c2n1` (centres unmarked) [Example 72, 6-Amino-2-(ethylsulfonimidoyl)-9-[(4-fluorophenyl)methyl]-7H-purin-8-one] had a solubility (thermodynamic) in series [2] of 152 µg/mL (≈ 434 µM). Moreover, in series [3], the “Human Liver Microsome Clearance” value is recorded as under 6.15 mL/min/kg.
Regarding `CCS(=N)(=O)c1nc(N)c2[nH]c(=O)n(Cc3ccc(C)cc3)c2n1` (single isomer, unassigned) [Example 71-B, 6-Amino-2-(ethylsulfonimidoyl)-9-(p-tolylmethyl)-7H-purin-8-one], the “LYSA” value in series [2] amounted to 13 µg/mL. Further, in series [3], the “Human Liver Microsome Clearance” value is given as under 6.15 mL/min/kg.
As for `CS(=N)(=O)c1nc(N)c2[nH]c(=O)n(Cc3ccccc3)c2n1` (single isomer, unassigned) [Example 1-A, 6-Amino-9-benzyl-2-(methylsulfonimidoyl)-7H-purin-8-one], the “LYSA” value in series [2] is 85 µg/mL. The “Human Liver Microsome Clearance” value in series [3] is reported as under 6.15 mL/min/kg.
Regarding `CCCCS(=N)(=O)c1nc(N)c2[nH]c(=O)n(Cc3ccccc3)c2n1` (centres unmarked) [Example 5, 6-Amino-9-benzyl-2-(butylsulfonimidoyl)-7H-purin-8-one], in series [1] (setting [5]), the EC50 turned out to be 0.32 µM. In series [2], this molecule had a thermodynamic solubility of 40 µg/mL (≈ 111 µM). Moreover, the “Human Liver Microsome Clearance” value in series [3] was under 6.15 mL/min/kg.
For `CS(=N)(=O)c1nc(N)c2[nH]c(=O)n(Cc3ccncc3)c2n1` (centres unmarked) [Example 20, 6-Amino-2-(methylsulfonimidoyl)-9-(4-pyridylmethyl)-7H-purin-8-one], the EC50 in series [1] (setting [5]) was 0.26 µM; in series [4], over 1000 µM. The Selective index in series [4] is over 3846.
Consider `COCCS(=N)(=O)c1nc(N)c2[nH]c(=O)n(Cc3ccccc3)c2n1` (centres unmarked) [Example 3, 6-Amino-9-benzyl-2-(2-methoxyethylsulfonimidoyl)-7H-purin-8-one], for which the EC50 in series [1] (setting [5]) came to 0.33 µM. In series [2], this molecule showed a thermodynamic solubility of 300 µg/mL (≈ 828 µM). Further, the “Human Liver Microsome Clearance” value in series [3] is under 6.15 mL/min/kg.
`CCS(=N)(=O)c1nc(N)c2[nH]c(=O)n(Cc3ccc(Cl)cc3)c2n1` (centres unmarked) [Example 70, 6-Amino-9-[(4-chlorophenyl)methyl]-2-(ethylsulfonimidoyl)-7H-purin-8-one]: in series [1] (setting [5]), the EC50 stood at 0.057 µM. In series [4], the EC50 was 90 µM and the Selective index stood at 1579. This molecule displayed a thermodynamic solubility in series [2] of 7 µg/mL (≈ 19.1 µM).
Consider `CS(=N)(=O)c1nc(N)c2[nH]c(=O)n(Cc3ccccc3)c2n1` (centres unmarked) [Example 1, 6-Amino-9-benzyl-2-(methylsulfonimidoyl)-7H-purin-8-one], for which the EC50 in series [1] (setting [5]) is 0.3 µM. Also, in series [3], the “Human Liver Microsome Clearance (mL/min/kg)” value was <6.15* mL/min/kg.
In turn, `CCS(=N)(=O)c1nc(N)c2[nH]c(=O)n(Cc3ccc(F)cc3)c2n1` (single isomer, unassigned) [Example 72-A, 6-Amino-2-(ethylsulfonimidoyl)-9-[(4-fluorophenyl)methyl]-7H-purin-8-one] returned a solubility (thermodynamic) in series [2] of 90 µg/mL (≈ 257 µM). The “Human Liver Microsome Clearance” value in series [3] is on record as under 6.15 mL/min/kg.
In the case of `CS(=N)(=O)c1nc(N)c2[nH]c(=O)n(Cc3cccnc3)c2n1` (centres unmarked) [Example 16, 6-Amino-2-(methylsulfonimidoyl)-9-(3-pyridylmethyl)-7H-purin-8-one], the EC50 in series [1] (setting [5]) was 0.22 µM. In series [4], the EC50 was over 1000 µM and the Selective index is recorded as over 4546.
As to `CCCS(=N)(=O)c1nc(N)c2[nH]c(=O)n(Cc3cnc(C)nc3)c2n1` (centres unmarked) [Example 44, 6-Amino-9-[(2-methylpyrimidin-5-yl)methyl]-2-(propylsulfonimidoyl)-7H-purin-8-one], the EC50 in series [1] (setting [5]) turned out to be 0.136 µM. In series [2], this molecule came in with a solubility (thermodynamic) of 357 µg/mL (≈ 985 µM). In series [3], the “Human Liver Microsome Clearance” value was under 6.15 mL/min/kg.
As to `CNC(=O)c1nc(N)c2[nH]c(=O)n(Cc3ccccc3)c2n1` [Example P-5, reference compound], the concentration for a half-maximal effect (EC50) in series [1] (setting [5]) was 3.14 µM; in series [4] (HEK-Blue-hTLR8 cells, SEAP reporter, 20 hrs, read-out: HEK Blue hTLR-8 EC50), over 1000 µM.
Consider `CCCS(=N)(=O)c1nc(N)c2[nH]c(=O)n(Cc3ccc(C#N)cc3)c2n1` (centres unmarked) [Example 32, 4-[[6-Amino-8-oxo-2-(propylsulfonimidoyl)-7H-purin-9-yl]methyl]benzonitrile], for which the EC50 in series [1] (HEK-Blue-hTLR7 (EC50 (μM))) was found to be 0.054 µM. In series [2], this molecule showed a thermodynamic solubility of 18 µg/mL (≈ 48.5 µM). The “Human Liver Microsome Clearance” value in series [3] is under 6.15 mL/min/kg.
`CCCS(=N)(=O)c1nc(N)c2[nH]c(=O)n(Cc3ccnc(C)c3)c2n1` (centres unmarked) [Example 35, 6-Amino-9-[(2-methyl-4-pyridyl)methyl]-2-(propylsulfonimidoyl)-7H-purin-8-one]: the EC50 in series [1] (setting [5]) was determined as 0.12 µM. Further, in series [3], the “Human Liver Microsome Clearance” value is on record as under 6.15 mL/min/kg.
For `CCS(=N)(=O)c1nc(N)c2[nH]c(=O)n(Cc3ccc(F)cc3)c2n1` (single isomer, unassigned) [Example 72-B, 6-Amino-2-(ethylsulfonimidoyl)-9-[(4-fluorophenyl)methyl]-7H-purin-8-one], the “LYSA” value in series [2] is 115 µg/mL. In addition, in series [3], the “Human Liver Microsome Clearance” value is under 6.15 mL/min/kg.
`CCCS(=N)(=O)c1nc(N)c2[nH]c(=O)n(Cc3cncnc3)c2n1` (centres unmarked) [Example 43, 6-Amino-2-(propylsulfonimidoyl)-9-(pyrimidin-5-ylmethyl)-7H-purin-8-one]: the EC50 in series [1] (setting [5]) was found to be 0.24 µM. The molecule further returned a solubility (thermodynamic) in series [2] of over 465 µg/mL. In addition, the “Human Liver Microsome Clearance” value in series [3] is listed as under 6.15 mL/min/kg.
With `CCCS(=N)(=O)c1nc(N)c2[nH]c(=O)n(Cc3ccc(C(=O)NCCOC)cc3)c2n1` (centres unmarked) [Example 40, 4-[[6-Amino-8-oxo-2-(propylsulfonimidoyl)-7H-purin-9-yl]methyl]-N-(2-methoxyethyl)benzamide], the EC50 in series [1] (setting [5]) worked out at 0.15 µM. In series [2], this molecule came in with a thermodynamic solubility of 168 µg/mL (≈ 375 µM). For the same molecule, the “Human Liver Microsome Clearance” value in series [3] is under 6.15 mL/min/kg.
